Test: xn = mol fraction of the nth substance listed

CCCCCCCC + CO
298.15 K, 101.33 kPa
Conditions | viscosity [mPa·s]
x1 = 0.0147 | 0.553
x2 = 0.0367 | 0.536
x2 = 0.0682 | 0.547
x2 = 0.0725 | 0.548
x2 = 0.0933 | 0.555
x2 = 0.1159 | 0.563
x2 = 0.9531 | 0.556
x2 = 0.9687 | 0.554

CCCCCO + CO
298.15 K, 101.33 kPa
Conditions | viscosity [mPa·s]
x2 = 0.1748 | 2.71
x2 = 0.2198 | 2.528
x2 = 0.327 | 2.143
x2 = 0.4302 | 1.813
x2 = 0.5186 | 1.57
x2 = 0.5951 | 1.372
x2 = 0.652 | 1.236
x2 = 0.7911 | 0.932
x2 = 0.8761 | 0.77

ClC(Cl)=C(Cl)Cl + CO
viscosity [mPa·s], 101.33 kPa
Conditions | x2 = 0.1436 | x2 = 0.2974 | x2 = 0.456 | x2 = 0.6044 | x2 = 0.7514 | x2 = 0.9006
293.15 K | 0.762 | 0.721 | 0.683 | 0.639 | 0.585 | 0.535
303.15 K | 0.705 | 0.667 | 0.63 | 0.59 | 0.552 | 0.512
313.15 K | 0.6515 | 0.622 | 0.592 | 0.561 | 0.529 | 0.497

O=[N+]([O-])c1ccccc1 + CO
viscosity [mPa·s]
Conditions | 298.15 K | 303.15 K
101 kPa, x1 = 0.0148 | 0.5642 | –
101 kPa, x2 = 0.0719 | 1.698 | –
101 kPa, x2 = 0.2616 | 1.416 | –
101 kPa, x2 = 0.4788 | 1.161 | –
101 kPa, x2 = 0.5889 | 1.036 | –
101 kPa, x2 = 0.7539 | 0.8366 | –
101 kPa, x2 = 0.8593 | 0.7113 | –
101 kPa, x2 = 0.9296 | 0.6279 | –
101.33 kPa, x1 = 0.0281 | 0.5789 | 0.541
101.33 kPa, x1 = 0.0612 | 0.611 | 0.5673
101.33 kPa, x1 = 0.1003 | 0.6507 | 0.607
101.33 kPa, x1 = 0.1478 | 0.7156 | 0.6653
101.33 kPa, x1 = 0.2806 | 0.8769 | 0.81
101.33 kPa, x1 = 0.3909 | 1.006 | 0.9279
101.33 kPa, x1 = 0.5102 | 1.156 | 1.093
101.33 kPa, x1 = 0.5937 | – | 1.298
101.33 kPa, x1 = 0.8005 | 1.559 | 1.485
101.33 kPa, x1 = 0.8978 | 1.693 | 1.534

CCCCCO + COC(=O)OC
101.3 kPa
Conditions | viscosity [mPa·s]
293.15 K, x2 = 0.0482 | 3.367
293.15 K, x2 = 0.0991 | 2.836
293.15 K, x2 = 0.1941 | 2.11
293.15 K, x2 = 0.2974 | 1.605
293.15 K, x2 = 0.3939 | 1.304
293.15 K, x2 = 0.4993 | 1.092
293.15 K, x2 = 0.6 | 0.939
293.15 K, x2 = 0.7013 | 0.81
293.15 K, x2 = 0.8013 | 0.704
293.15 K, x2 = 0.8915 | 0.635
293.15 K, x2 = 0.9503 | 0.619
298.15 K, x2 = 0.0457 | 2.905
298.15 K, x2 = 0.1016 | 2.46
298.15 K, x2 = 0.1979 | 1.88
298.15 K, x2 = 0.3057 | 1.441
298.15 K, x2 = 0.4024 | 1.179
298.15 K, x2 = 0.503 | 0.988
298.15 K, x2 = 0.5793 | 0.878
298.15 K, x2 = 0.7034 | 0.739
298.15 K, x2 = 0.8003 | 0.655
298.15 K, x2 = 0.9018 | 0.597
298.15 K, x2 = 0.9494 | 0.586
303.15 K, x1 = 0.0192 | 0.542
303.15 K, x2 = 0.0539 | 2.488
303.15 K, x2 = 0.0906 | 2.228
303.15 K, x2 = 0.1979 | 1.66
303.15 K, x2 = 0.2613 | 1.416
303.15 K, x2 = 0.3902 | 1.066
303.15 K, x2 = 0.4928 | 0.89
303.15 K, x2 = 0.5918 | 0.759
303.15 K, x2 = 0.6923 | 0.661
303.15 K, x2 = 0.792 | 0.601
303.15 K, x2 = 0.8943 | 0.56
313.15 K, x2 = 0.0467 | 1.972
313.15 K, x2 = 0.1037 | 1.678
313.15 K, x2 = 0.2514 | 1.161
313.15 K, x2 = 0.3005 | 1.046
313.15 K, x2 = 0.3996 | 0.876
313.15 K, x2 = 0.5052 | 0.75
313.15 K, x2 = 0.6059 | 0.659
313.15 K, x2 = 0.7024 | 0.596
313.15 K, x2 = 0.8053 | 0.54
313.15 K, x2 = 0.9051 | 0.502
313.15 K, x2 = 0.9651 | 0.494

CCCCCCCCCCCCCC + COC(=O)c1ccccc1
101 kPa
Conditions | viscosity [mPa·s]
298.15 K, x1 = 0.0359 | 1.787
298.15 K, x1 = 0.0603 | 1.763
298.15 K, x1 = 0.0869 | 1.742
298.15 K, x1 = 0.114 | 1.723
298.15 K, x1 = 0.1429 | 1.706
298.15 K, x1 = 0.1751 | 1.695
298.15 K, x1 = 0.2075 | 1.686
298.15 K, x1 = 0.2786 | 1.675
298.15 K, x1 = 0.3166 | 1.672
298.15 K, x1 = 0.3592 | 1.673
298.15 K, x1 = 0.4082 | 1.68
298.15 K, x1 = 0.4539 | 1.688
298.15 K, x1 = 0.5114 | 1.7
298.15 K, x1 = 0.5687 | 1.718
298.15 K, x1 = 0.6228 | 1.743
298.15 K, x1 = 0.6938 | 1.782
298.15 K, x1 = 0.7735 | 1.842
298.15 K, x1 = 0.8501 | 1.905
308.15 K, x1 = 0.0334 | 1.486
308.15 K, x1 = 0.0663 | 1.471
308.15 K, x1 = 0.0869 | 1.464
308.15 K, x1 = 0.1156 | 1.452
308.15 K, x1 = 0.1423 | 1.444
308.15 K, x1 = 0.1737 | 1.436
308.15 K, x1 = 0.2082 | 1.428
308.15 K, x1 = 0.2405 | 1.422
308.15 K, x1 = 0.2806 | 1.418
308.15 K, x1 = 0.3218 | 1.415
308.15 K, x1 = 0.3558 | 1.415
308.15 K, x1 = 0.4082 | 1.42
308.15 K, x1 = 0.4482 | 1.426
308.15 K, x1 = 0.5073 | 1.438
308.15 K, x1 = 0.5627 | 1.455
308.15 K, x1 = 0.62 | 1.478
308.15 K, x1 = 0.6846 | 1.508
308.15 K, x1 = 0.7661 | 1.553
308.15 K, x1 = 0.8624 | 1.613
318.15 K, x1 = 0.0194 | 1.263
318.15 K, x1 = 0.0462 | 1.25
318.15 K, x1 = 0.071 | 1.242
318.15 K, x1 = 0.1011 | 1.231
318.15 K, x1 = 0.1287 | 1.223
318.15 K, x1 = 0.1619 | 1.213
318.15 K, x1 = 0.193 | 1.205
318.15 K, x1 = 0.2311 | 1.198
318.15 K, x1 = 0.267 | 1.193
318.15 K, x1 = 0.3111 | 1.189
318.15 K, x1 = 0.3471 | 1.186
318.15 K, x1 = 0.3979 | 1.187
318.15 K, x1 = 0.4448 | 1.189
318.15 K, x1 = 0.5017 | 1.196
318.15 K, x1 = 0.5526 | 1.206
318.15 K, x1 = 0.6171 | 1.222
318.15 K, x1 = 0.6828 | 1.244
318.15 K, x1 = 0.7602 | 1.276
318.15 K, x1 = 0.8353 | 1.314
